Assay type in all cases: in vivo
Test [1] deals with Blumeria graminis f. sp. tritici. Kind of test: Test C: test suspension sprayed on wheat seedlings, inoculated next day with Blumeria graminis f. sp. tritici (wheat powdery mildew); visual disease rating (100 = 100% disease control, 0 = no control; dash = not tested). A digest of the protocol:
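Wheat seedlings were sprayed to run-off with test suspension, then dusted next day with Blumeria graminis f. sp. tritici spores. After 8 days at 20 °C in a growth chamber, disease was rated visually as percent control relative to untreated controls.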

Test [2] concerns Puccinia recondita f. sp. tritici. Kind of test: Test B: test solution sprayed on wheat seedlings, inoculated next day with Puccinia recondita f. sp. tritici (wheat leaf rust); disease rating (100 = 100% disease control, 0 = no control; dash = not tested). The text has this:
The resulting test suspensions were then used in Tests A-F. The test solution was sprayed to the point of run-off on wheat seedlings. […] A rating of 100 indicates 100% disease control and a rating of 0 indicates no disease control (relative to the controls). A dash (—) indicates the compound was not tested.

Test [3] relates to Zymoseptoria tritici. As to the kind of experiment: Test A: test solution sprayed on wheat seedlings, inoculated next day with Zymoseptoria tritici (wheat leaf blotch); disease rating (100 = 100% disease control, 0 = no control; dash = not tested). The essentials:
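Wheat seedlings sprayed to run-off with test solution, inoculated next day with Z. tritici spores, held 48 h at 24° C in saturated atmosphere, then 17 days at 20° C before rating. Scores are % disease control relative to controls (100 = full control, 0 = none).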

The subject of test [4] is Alternaria solani. Kind of test: Test F: test suspension sprayed on tomato seedlings, inoculated next day with Alternaria solani (tomato early blight); visual disease rating (100 = 100% disease control, 0 = no control; dash = not tested). A digest of the protocol:
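Tomato seedlings sprayed to run-off with test suspension, inoculated next day with A. solani spores, held saturated at 27° C. for 48 h, then 20° C. for 3 days. Disease visually rated as % control relative to untreated controls.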

The test system of test [5] is Botrytis cinerea. As to the kind of experiment: Test E: test suspension sprayed on tomato seedlings, inoculated next day with Botrytis cinerea (tomato Botrytis); visual disease rating (100 = 100% disease control, 0 = no control; dash = not tested). A digest of the protocol: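 Tomato seedlings were sprayed to run-off and inoculated next day with Botrytis cinerea spores. They were held 48 h at 20° C in saturated humidity, then 3 days at 24° C. Disease control was rated visually against controls (100 = full, 0 = none).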

The test system of test [6] is Phakopsora pachyrhizi. As to the kind of experiment: Test D: test solution sprayed on soybean seedlings, inoculated next day with Phakopsora pachyrhizi (Asian soybean rust); visual disease rating (100 = 100% disease control, 0 = no control; dash = not tested). A digest of the protocol: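 Compounds predissolved in acetone (3% of final volume), suspended at ppm concentrations in 50/50 acetone/water with 250 ppm PEG400, sprayed to run-off on soybean seedlings. Inoculated next day with spores, 24 h saturated atmosphere at 22 °C, then 8 days growth chamber at 22 °C; visual rating, 100 = full control.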

SMILES strings stand for the structures.

Regarding `CCN1N=C(c2cc(OC)cc(OC)c2)C(c2ccc(F)cc2Cl)CC1=O` (stereo not drawn) [Compound 19], the “Test C disease control rating” value in test [1] (250 ppm) is reported as 0%. Also, in test [2] (250 ppm), the “Test B disease control rating” value is 0%. For the same compound, in test [3] (250 ppm), the “Test A disease control rating” value came to 0%. For the same compound, the “Test F disease control rating” value in test [4] (250 ppm) is listed as 0%. Further, in test [5] (250 ppm), the “Test E disease control rating” value was 0%. Besides, the “Test D disease control rating” value in test [6] (250 ppm) is on record as 0%.

Regarding `COc1ccc(C)c(-c2nn(C)c(=O)c(C)c2-c2ccc(F)cc2Cl)c1` [Compound 135], in test [1] (50 ppm), the “Test C disease control rating” value worked out at 100%. Further, the “Test B disease control rating” value in test [2] (50 ppm) came to 100%. In addition, the “Test A disease control rating” value in test [3] (50 ppm) is 100%. Also, the “Test F disease control rating” value in test [4] (50 ppm) worked out at 100%. Besides, in test [5] (50 ppm), the “Test E disease control rating” value stood at 97%. Moreover, the “Test D disease control rating” value in test [6] (50 ppm) stood at 100%.

As usually defined, the pest or weed control is how far the test organism was held down. A low value points to weak suppression. As to `COc1cc(OC)cc(-c2nn(C)c(=O)c(C)c2-c2c(F)cccc2F)c1` [Compound 21, 5-(2,6-difluorophenyl)-6-(3,5-dimethoxyphenyl)-2,4-dimethyl-3 (2H)-pyridazinone], the pest or weed control at 250 ppm was determined as 100% in test [1] (250 ppm); 100% in test [2] (250 ppm); 100% in test [3] (250 ppm); 99% in test [4] (250 ppm); 100% in test [5] (250 ppm); 100% in test [6] (250 ppm).

With `CCc1c(-c2ccc(F)cc2Cl)c(-c2cc(OC)ccc2Cl)nn(C)c1=O` [Compound 134, 5-(2-chloro-4-fluorophenyl)-6-(2-chloro-5-methoxyphenyl)-4-ethyl-2-methyl-3(2H)-pyridazinone], the pest or weed control at 50 ppm in test [1] (50 ppm) was found to be 100%; in test [2] (50 ppm), 100%; in test [3] (50 ppm), 100%; in test [4] (50 ppm), 100%; in test [5] (50 ppm), 98%; in test [6] (50 ppm), 96%.

Regarding `CCc1c(-c2ccc(F)cc2Cl)c(-c2ccc(F)cc2Cl)nn(C)c1=O` [Compound 167], the “Test C disease control rating” value in test [1] (50 ppm) is recorded as 100%. The “Test B disease control rating” value in test [2] (50 ppm) was 100%. Further, in test [3] (50 ppm), the “Test A disease control rating” value stood at 100%. Also, the “Test F disease control rating” value in test [4] (50 ppm) is reported as 100%. The “Test E disease control rating” value in test [5] (50 ppm) is recorded as 86%. Further, the “Test D disease control rating” value in test [6] (50 ppm) is recorded as 0%.

In the case of `COc1cc(F)c(-c2c(-c3cc(OC)ccc3Cl)nn(C)c(=O)c2Cl)c(F)c1` [Compound 96], the “Test C disease control rating” value in test [1] (50 ppm) is on record as 97%. The “Test B disease control rating” value in test [2] (50 ppm) came to 100%. Moreover, the “Test A disease control rating” value in test [3] (50 ppm) came out at 100%. In addition, the “Test F disease control rating” value in test [4] (50 ppm) amounted to 100%. The “Test E disease control rating” value in test [5] (50 ppm) stood at 96%. Moreover, the “Test D disease control rating” value in test [6] (50 ppm) was found to be 100%.

For `COc1c(-c2ccc(F)cc2Cl)c(-c2cccc(Cl)c2F)nn(C)c1=O` [Compound 109], in test [1] (50 ppm), the “Test C disease control rating” value is 99%. The “Test B disease control rating” value in test [2] (50 ppm) is 74%. The “Test A disease control rating” value in test [3] (50 ppm) was found to be 100%. In test [4] (50 ppm), the “Test F disease control rating” value worked out at 85%. Besides, the “Test E disease control rating” value in test [5] (50 ppm) was 96%. Besides, the “Test D disease control rating” value in test [6] (50 ppm) was found to be 0%.

As to `COc1ccc(Cl)c(-c2nn(C)c(=O)c(Cl)c2-c2ccc(F)cc2Br)c1` [Compound 97], the “Test C disease control rating” value in test [1] (50 ppm) was 100%. In addition, in test [2] (50 ppm), the “Test B disease control rating” value is recorded as 100%. Besides, the “Test A disease control rating” value in test [3] (50 ppm) was determined as 100%. For the same compound, the “Test F disease control rating” value in test [4] (50 ppm) was 99%. Also, the “Test E disease control rating” value in test [5] (50 ppm) was determined as 96%. In test [6] (50 ppm), the “Test D disease control rating” value was found to be 100%.

As to `COc1ccc(-c2nn(C)c(=O)c(Cl)c2-c2ccc(F)cc2Cl)c(F)c1` [Compound 163], the “Test C disease control rating” value in test [1] (50 ppm) is recorded as 78%. The “Test B disease control rating” value in test [2] (50 ppm) came out at 100%. In addition, in test [3] (50 ppm), the “Test A disease control rating” value was 100%. Further, in test [4] (50 ppm), the “Test F disease control rating” value is given as 99%. Besides, the “Test E disease control rating” value in test [5] (50 ppm) is 100%. Moreover, in test [6] (50 ppm), the “Test D disease control rating” value is listed as 77%.

`COc1cc(F)c(F)c(-c2nn(C)c(=O)c(C)c2-c2ccc(F)cc2Cl)c1` [Compound 137]: the “Test C disease control rating” value in test [1] (50 ppm) is 100%. Besides, in test [2] (50 ppm), the “Test B disease control rating” value was 100%. Besides, the “Test A disease control rating” value in test [3] (50 ppm) is 100%. In test [4] (50 ppm), the “Test F disease control rating” value came out at 100%. Further, the “Test E disease control rating” value in test [5] (50 ppm) stood at 66%. Besides, the “Test D disease control rating” value in test [6] (50 ppm) is given as 100%.

On to `Cn1nc(-c2ccccc2)c(-c2c(F)cccc2F)cc1=O` [Compound 191], for which the “Test C disease control rating” value in test [1] (250 ppm) is 99%. Moreover, the “Test B disease control rating” value in test [2] (250 ppm) turned out to be 9%. In test [3] (250 ppm), the “Test A disease control rating” value worked out at 72%. For the same compound, the “Test F disease control rating” value in test [4] (250 ppm) is recorded as 0%. Further, the “Test E disease control rating” value in test [5] (250 ppm) was 99%. Besides, in test [6] (250 ppm), the “Test D disease control rating” value is on record as 0%.

With `Cn1nc(-c2ccc(F)cc2Cl)c(-c2ccc(F)cc2Cl)cc1=O` [Compound 70], the “Test C disease control rating” value in test [1] (50 ppm) is on record as 76%. In addition, in test [2] (50 ppm), the “Test B disease control rating” value was 41%. Besides, in test [3] (50 ppm), the “Test A disease control rating” value is on record as 93%. The “Test F disease control rating” value in test [4] (50 ppm) is given as 0%. In addition, the “Test E disease control rating” value in test [5] (50 ppm) amounted to 98%. Moreover, the “Test D disease control rating” value in test [6] (50 ppm) is 52%.

As to `CCn1nc(-c2cc(OC)cc(OC)c2Cl)c(-c2ccc(F)cc2Cl)cc1=O` [Compound 202], the “Test C disease control rating” value in test [1] (50 ppm) stood at 72%. In test [2] (50 ppm), the “Test B disease control rating” value is 68%. Besides, in test [3] (50 ppm), the “Test A disease control rating” value is listed as 99%. Moreover, the “Test F disease control rating” value in test [4] (50 ppm) came to 0%. Besides, the “Test E disease control rating” value in test [5] (50 ppm) came to 99%. Moreover, in test [6] (50 ppm), the “Test D disease control rating” value stood at 44%.

For `COc1cc(-c2nn(C)c(=O)cc2-c2ccc(F)cc2Cl)cc(OC)c1Cl` [Compound 203], the “Test C disease control rating” value in test [1] (50 ppm) was 0%. Besides, the “Test B disease control rating” value in test [2] (50 ppm) is on record as 0%. The “Test A disease control rating” value in test [3] (50 ppm) is listed as 0%. Further, the “Test F disease control rating” value in test [4] (50 ppm) is 0%. In addition, the “Test E disease control rating” value in test [5] (50 ppm) was determined as 31%. Further, the “Test D disease control rating” value in test [6] (50 ppm) amounted to 0%.

For `CCCc1c(-c2ccc(F)cc2Cl)c(-c2cc(OC)ccc2Cl)nn(C)c1=O` [Compound 125], in test [1] (50 ppm), the “Test C disease control rating” value was determined as 97%. Moreover, in test [2] (50 ppm), the “Test B disease control rating” value was 0%. Moreover, in test [3] (50 ppm), the “Test A disease control rating” value is recorded as 100%. For the same compound, the “Test F disease control rating” value in test [4] (50 ppm) was determined as 0%. In addition, the “Test E disease control rating” value in test [5] (50 ppm) was found to be 99%. For the same compound, the “Test D disease control rating” value in test [6] (50 ppm) amounted to 17%.

Take `CCn1nc(-c2cc(OC)cc(OC)c2Br)c(-c2c(F)cccc2F)cc1=O` [Compound 17]: in test [1] (50 ppm), the “Test C disease control rating” value worked out at 94%. In test [2] (50 ppm), the “Test B disease control rating” value is on record as 99%. In addition, the “Test A disease control rating” value in test [3] (50 ppm) is 98%. Also, the “Test F disease control rating” value in test [4] (50 ppm) is 0%. For the same compound, the “Test E disease control rating” value in test [5] (50 ppm) worked out at 99%. The “Test D disease control rating” value in test [6] (50 ppm) was 73%.

As for `COc1ccc(Br)c(-c2nn(C)c(=O)c(Cl)c2-c2ccc(F)cc2Cl)c1` [Compound 118], the “Test C disease control rating” value in test [1] (50 ppm) came out at 99%. For the same compound, in test [2] (50 ppm), the “Test B disease control rating” value stood at 100%. The “Test A disease control rating” value in test [3] (50 ppm) turned out to be 99%. Further, in test [4] (50 ppm), the “Test F disease control rating” value worked out at 100%. In test [5] (50 ppm), the “Test E disease control rating” value was determined as 98%. In addition, the “Test D disease control rating” value in test [6] (50 ppm) came out at 100%.

For `CCn1nc(-c2cc(OC)cc(OC)c2Cl)c(-c2c(F)cccc2F)c(Cl)c1=O` [Compound 9], the “Test C disease control rating” value in test [1] (50 ppm) came out at 99%. In test [2] (50 ppm), the “Test B disease control rating” value came to 100%. Also, the “Test A disease control rating” value in test [3] (50 ppm) is recorded as 100%. Also, the “Test F disease control rating” value in test [4] (50 ppm) is 91%. Also, the “Test E disease control rating” value in test [5] (50 ppm) came out at 99%. Further, the “Test D disease control rating” value in test [6] (50 ppm) is recorded as 99%.
